Patent US6706663B2, “Herbicidal 3-heterocyclic substituted benzisothiazole and benzisoxazole compounds” (Wyeth, priority 2000, dated 2004)

Tests used:
[1] = test system: GLXMAW (Soybean, Williams); experiment: Preemergence herbicidal evaluation; type: in vivo, Glycine max, (L.) Merr. cv Williams; conditions: rated 4-5 weeks after treatment
[2] = test system: CHEAL (Chenopodium album); experiment: Postemergence herbicidal evaluation; type: in vivo, L.; conditions: for CHEAL herbicidal rating: postemergence
Summary of the method: (§1)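 Visual 0–9 injury scores versus control plants, covering stand, vigour, malformation, size, chlorosis and general appearance, taken four to five weeks post-spray and averaged over replicate tests. Plants were sprayed at roughly two weeks old and held on greenhouse benches.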

[3] = test system: AMBEL (Ambrosia artemisifolia); experiment: Postemergence herbicidal evaluation; type: in vivo, L.; conditions: for AMBEL herbicidal rating: postemergence
Summary of the method: as §1

[4] = test system: CASOB (Cassia obtusifolia); experiment: Postemergence herbicidal evaluation; type: in vivo, L.; conditions: for CASOB herbicidal rating: postemergence
Summary of the method: as §1

[5] = test system: TRZAWR (Wheat, Winter, cv Riband); experiment: Preemergence herbicidal evaluation; type: in vivo, Triticum aestivum; conditions: rated 4-5 weeks after treatment
Summary of the method: (§2)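 Rating 0–9, visual, vs control; 4–5 wk after spraying seeded cups with compound in aq. acetone; conventional greenhouse care.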

CYPIR (Cyperus iria) = experiment: Flooded paddy, preemergence weed control; type: in vivo; conditions: rated 3-4 weeks after treatment, 0-9 rating scale
Summary of the method: (§3)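 Silt loam, sowing depth ≤0.5 cm; permanent flood 1.5–3 cm above soil; greenhouse culture after treatment. Readout: 0-9 visual scale (stand, vigor, malformation, size, chlorosis, appearance) vs control.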

ZEAMX (Corn, Field) = experiment: Preemergence herbicidal evaluation; type: in vivo, Zea mays, L.; conditions: rated 4-5 weeks after treatment
[6] = test system: MOOVA (Monochoria vaginalis); experiment: Flooded paddy, preemergence weed control; type: in vivo, Presl.; conditions: rated 3-4 weeks after treatment, 0-9 rating scale
Summary of the method: as §3

[7] = test system: IPOHE (Ipomoea hederacea); experiment: Preemergence herbicidal evaluation; type: in vivo, (L.) Jacq.; conditions: rated 4-5 weeks after treatment
[8] = test system: IPOHE (Ipomoea hederacea); experiment: Postemergence herbicidal evaluation; type: in vivo, (L.) Jacq.; conditions: for IPOHE herbicidal rating: postemergence
Summary of the method: as §1

ORYSAT (Rice, Tebonnet) [9] = experiment: Postemergence herbicidal evaluation; type: in vivo, Oryza sativa, (L.) Tebonnet; conditions: for ORYSAT herbicidal rating: postemergence
Summary of the method: as §1

[10] = test system: ABUTH (Abutilon theophrasti); experiment: Postemergence herbicidal evaluation; type: in vivo, Medic.; conditions: for ABUTH herbicidal rating: postemergence
Summary of the method: as §1

[11] = test system: ABUTH (Abutilon theophrasti); experiment: Preemergence herbicidal evaluation; type: in vivo, Medic.; conditions: rated 4-5 weeks after treatment
SETVI (Setaria viridis) = experiment: Preemergence herbicidal evaluation; type: in vivo, (L.) Beau; conditions: rated 4-5 weeks after treatment
Summary of the method: as §2

[12] = test system: ECHCG (Echinochloa crus-galli); experiment: Preemergence herbicidal evaluation; type: in vivo, (L.) Beau; conditions: rated 4-5 weeks after treatment
Summary of the method: as §2

[13] = test system: GLXMAW (Soybean, Williams); experiment: Postemergence herbicidal evaluation; type: in vivo, Glycine max, (L.) Merr. cv Williams; conditions: for GLXMAW herbicidal rating: postemergence
Summary of the method: as §1

[14] = test system: CHEAL (Chenopodium album); experiment: Preemergence herbicidal evaluation; type: in vivo, L.; conditions: rated 4-5 weeks after treatment
Summary of the method: as §2

[15] = test system: AMBEL (Ambrosia artemisifolia); experiment: Preemergence herbicidal evaluation; type: in vivo, L.; conditions: rated 4-5 weeks after treatment
Summary of the method: as §2

[16] = test system: CASOB (Cassia obtusifolia); experiment: Preemergence herbicidal evaluation; type: in vivo, L.; conditions: rated 4-5 weeks after treatment
Summary of the method: as §2

ORYSAT (Rice, Tebonnet) [17] = experiment: Flooded paddy, post-transplant rice tolerance; type: in vivo, Oryza sativa, (L.) Tebonnet; conditions: flooded paddy, post-transplant rice, rated 3-4 weeks after treatment, 0-9 rating scale
Summary of the method: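 Scores (0-9) reflect visual injury relative to untreated plants in flooded silt loam. Each pot held two transplanted ten-day-old seedlings under 1.5 to 3 cm standing water in the greenhouse.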

CCc1cc(-c2nsc3ccc(-n4c(=O)cc(C(F)(F)F)n(C)c4=O)cc23)c(CC)s1 [Compound 8, 3-[3-(2,5-diethyl-3-thienyl)-1,2-benzisothiazol-5-yl]-1-methyl-6-(trifluoromethyl)uracil]
5.0: Postemergence herbicidal rating, GLXMAW ([13]; rate 0.0320 kg/ha)
9.0: herbicidal rating, CYPIR (CYPIR (Cyperus iria); rate 0.0320 kg/ha) | herbicidal rating, CYPIR (CYPIR (Cyperus iria); rate 0.1250 kg/ha) | herbicidal rating, MOOVA ([6]; rate 0.0080 kg/ha) | herbicidal rating, MOOVA ([6]; rate 0.0320 kg/ha) | herbicidal rating, MOOVA ([6]; rate 0.1250 kg/ha) | Postemergence herbicidal rating, IPOHE ([8]; rate 0.0320 kg/ha) | Postemergence herbicidal rating, ABUTH ([10]; rate 0.0320 kg/ha) | Postemergence herbicidal rating, ABUTH ([10]; rate 0.0620 kg/ha) | ABUTH preemergence herbicidal rating ([11]; Rate 0.1250 kg/ha) | ABUTH preemergence herbicidal rating ([11]; Rate 0.2500 kg/ha) | SETVI preemergence herbicidal rating (SETVI (Setaria viridis); Rate 0.0620 kg/ha) | SETVI preemergence herbicidal rating (SETVI (Setaria viridis); Rate 0.1250 kg/ha) | SETVI preemergence herbicidal rating (SETVI (Setaria viridis); Rate 0.2500 kg/ha) | ECHCG preemergence herbicidal rating ([12]; Rate 0.2500 kg/ha) | CHEAL preemergence herbicidal rating ([14]; Rate 0.0620 kg/ha) | CHEAL preemergence herbicidal rating ([14]; Rate 0.1250 kg/ha) | CHEAL preemergence herbicidal rating ([14]; Rate 0.2500 kg/ha) | AMBEL preemergence herbicidal rating ([15]; Rate 0.2500 kg/ha)
2.7: herbicidal rating, ORYSAT (rice tolerance) (ORYSAT (Rice, Tebonnet) [17]; rate 0.1250 kg/ha)
2.0: AMBEL preemergence herbicidal rating ([15]; Rate 0.1250 kg/ha)
6.0: Postemergence herbicidal rating, AMBEL ([3]; rate 0.0620 kg/ha)
1.5: herbicidal rating, ORYSAT (rice tolerance) (ORYSAT (Rice, Tebonnet) [17]; rate 0.0320 kg/ha)
8.5: herbicidal rating, CYPIR (CYPIR (Cyperus iria); rate 0.0080 kg/ha)
4.0: Postemergence herbicidal rating, CHEAL ([2]; rate 0.0320 kg/ha)
7.0: Postemergence herbicidal rating, CHEAL ([2]; rate 0.0620 kg/ha) | Postemergence herbicidal rating, IPOHE ([8]; rate 0.0620 kg/ha)
3.0: Postemergence herbicidal rating, AMBEL ([3]; rate 0.0320 kg/ha) | ZEAMX preemergence herbicidal rating (ZEAMX (Corn, Field); Rate 0.2500 kg/ha) | Postemergence herbicidal rating, ORYSAT (ORYSAT (Rice, Tebonnet) [9]; rate 0.0320 kg/ha) | Postemergence herbicidal rating, ORYSAT (ORYSAT (Rice, Tebonnet) [9]; rate 0.0620 kg/ha)
0.0: GLXMAW preemergence herbicidal rating ([1]; Rate 0.0620 kg/ha) | GLXMAW preemergence herbicidal rating ([1]; Rate 0.1250 kg/ha) | GLXMAW preemergence herbicidal rating ([1]; Rate 0.2500 kg/ha) | TRZAWR preemergence herbicidal rating ([5]; Rate 0.0620 kg/ha) | TRZAWR preemergence herbicidal rating ([5]; Rate 0.1250 kg/ha) | TRZAWR preemergence herbicidal rating ([5]; Rate 0.2500 kg/ha) | ZEAMX preemergence herbicidal rating (ZEAMX (Corn, Field); Rate 0.0620 kg/ha) | ZEAMX preemergence herbicidal rating (ZEAMX (Corn, Field); Rate 0.1250 kg/ha) | IPOHE preemergence herbicidal rating ([7]; Rate 0.0620 kg/ha) | IPOHE preemergence herbicidal rating ([7]; Rate 0.1250 kg/ha) | ABUTH preemergence herbicidal rating ([11]; Rate 0.0620 kg/ha) | ECHCG preemergence herbicidal rating ([12]; Rate 0.0620 kg/ha) | ECHCG preemergence herbicidal rating ([12]; Rate 0.1250 kg/ha) | AMBEL preemergence herbicidal rating ([15]; Rate 0.0620 kg/ha) | CASOB preemergence herbicidal rating ([16]; Rate 0.0620 kg/ha) | CASOB preemergence herbicidal rating ([16]; Rate 0.1250 kg/ha) | CASOB preemergence herbicidal rating ([16]; Rate 0.2500 kg/ha)
5.5: Postemergence herbicidal rating, GLXMAW ([13]; rate 0.0620 kg/ha)
1.0: Postemergence herbicidal rating, CASOB ([4]; rate 0.0320 kg/ha) | Postemergence herbicidal rating, CASOB ([4]; rate 0.0620 kg/ha) | IPOHE preemergence herbicidal rating ([7]; Rate 0.2500 kg/ha) | herbicidal rating, ORYSAT (rice tolerance) (ORYSAT (Rice, Tebonnet) [17]; rate 0.0080 kg/ha)

Cc1cnn(-c2nsc3ccc(-n4c(=O)cc(C(F)(F)F)n(C)c4=O)cc23)c1 [Compound 59, 1-methyl-3-[3-(4-methylpyrazol-1-yl)-1,2-benzisothiazol-5-yl]-6-(trifluoromethyl)uracil]
2.0: Preemergence herbicidal rating GLXMAW ([1]; Rate 0.1250 kg/ha) | Preemergence herbicidal rating TRZAWR ([5]; Rate 0.1250 kg/ha) | Preemergence herbicidal rating TRZAWR ([5]; Rate 0.2500 kg/ha) | ORYSAT herbicidal rating (ORYSAT (Rice, Tebonnet) [9]; rate 0.0320 kg/ha) | Preemergence herbicidal rating ECHCG ([12]; Rate 0.0620 kg/ha)
1.0: Preemergence herbicidal rating TRZAWR ([5]; Rate 0.0620 kg/ha) | Preemergence herbicidal rating ZEAMX (ZEAMX (Corn, Field); Rate 0.0620 kg/ha) | Preemergence herbicidal rating IPOHE ([7]; Rate 0.1250 kg/ha)
8.0: CHEAL herbicidal rating ([2]; rate 0.0320 kg/ha) | IPOHE herbicidal rating ([8]; rate 0.0320 kg/ha) | IPOHE herbicidal rating ([8]; rate 0.0620 kg/ha) | GLXMAW herbicidal rating ([13]; rate 0.1250 kg/ha)
7.0: Preemergence herbicidal rating ABUTH ([11]; Rate 0.2500 kg/ha) | Preemergence herbicidal rating ECHCG ([12]; Rate 0.2500 kg/ha)
0.0: Preemergence herbicidal rating GLXMAW ([1]; Rate 0.0620 kg/ha) | CASOB herbicidal rating ([4]; rate 0.0320 kg/ha) | herbicidal rating, CYPIR (CYPIR (Cyperus iria); rate 0.0080 kg/ha) | herbicidal rating, MOOVA ([6]; rate 0.0080 kg/ha) | Preemergence herbicidal rating IPOHE ([7]; Rate 0.0620 kg/ha) | Preemergence herbicidal rating ABUTH ([11]; Rate 0.0620 kg/ha) | Preemergence herbicidal rating AMBEL ([15]; Rate 0.0620 kg/ha) | Preemergence herbicidal rating CASOB ([16]; Rate 0.0620 kg/ha) | Preemergence herbicidal rating CASOB ([16]; Rate 0.1250 kg/ha) | Preemergence herbicidal rating CASOB ([16]; Rate 0.2500 kg/ha) | herbicidal rating, ORYSAT (rice tolerance) (ORYSAT (Rice, Tebonnet) [17]; rate 0.0080 kg/ha) | herbicidal rating, ORYSAT (rice tolerance) (ORYSAT (Rice, Tebonnet) [17]; rate 0.0320 kg/ha) | herbicidal rating, ORYSAT (rice tolerance) (ORYSAT (Rice, Tebonnet) [17]; rate 0.1250 kg/ha)
9.0: CHEAL herbicidal rating ([2]; rate 0.0620 kg/ha) | CHEAL herbicidal rating ([2]; rate 0.1250 kg/ha) | AMBEL herbicidal rating ([3]; rate 0.0320 kg/ha) | AMBEL herbicidal rating ([3]; rate 0.0620 kg/ha) | AMBEL herbicidal rating ([3]; rate 0.1250 kg/ha) | herbicidal rating, CYPIR (CYPIR (Cyperus iria); rate 0.1250 kg/ha) | herbicidal rating, MOOVA ([6]; rate 0.1250 kg/ha) | IPOHE herbicidal rating ([8]; rate 0.1250 kg/ha) | ABUTH herbicidal rating ([10]; rate 0.0320 kg/ha) | ABUTH herbicidal rating ([10]; rate 0.0620 kg/ha) | ABUTH herbicidal rating ([10]; rate 0.1250 kg/ha) | Preemergence herbicidal rating ABUTH ([11]; Rate 0.1250 kg/ha) | Preemergence herbicidal rating SETVI (SETVI (Setaria viridis); Rate 0.2500 kg/ha) | Preemergence herbicidal rating CHEAL ([14]; Rate 0.0620 kg/ha) | Preemergence herbicidal rating CHEAL ([14]; Rate 0.1250 kg/ha) | Preemergence herbicidal rating CHEAL ([14]; Rate 0.2500 kg/ha)
7.5: GLXMAW herbicidal rating ([13]; rate 0.0320 kg/ha) | GLXMAW herbicidal rating ([13]; rate 0.0620 kg/ha)
6.0: Preemergence herbicidal rating SETVI (SETVI (Setaria viridis); Rate 0.0620 kg/ha) | Preemergence herbicidal rating SETVI (SETVI (Setaria viridis); Rate 0.1250 kg/ha) | Preemergence herbicidal rating AMBEL ([15]; Rate 0.2500 kg/ha)
2.5: ORYSAT herbicidal rating (ORYSAT (Rice, Tebonnet) [9]; rate 0.0620 kg/ha) | ORYSAT herbicidal rating (ORYSAT (Rice, Tebonnet) [9]; rate 0.1250 kg/ha)
5.0: Preemergence herbicidal rating ZEAMX (ZEAMX (Corn, Field); Rate 0.1250 kg/ha) | Preemergence herbicidal rating ZEAMX (ZEAMX (Corn, Field); Rate 0.2500 kg/ha) | Preemergence herbicidal rating AMBEL ([15]; Rate 0.1250 kg/ha)
3.0: Preemergence herbicidal rating GLXMAW ([1]; Rate 0.2500 kg/ha) | CASOB herbicidal rating ([4]; rate 0.0620 kg/ha) | CASOB herbicidal rating ([4]; rate 0.1250 kg/ha) | herbicidal rating, CYPIR (CYPIR (Cyperus iria); rate 0.0320 kg/ha) | herbicidal rating, MOOVA ([6]; rate 0.0320 kg/ha) | Preemergence herbicidal rating IPOHE ([7]; Rate 0.2500 kg/ha) | Preemergence herbicidal rating ECHCG ([12]; Rate 0.1250 kg/ha)
